Test results as given in patent US12239643B2, “Therapeutic agent for inflammatory diseases, autoimmune diseases, fibrotic diseases, and cancer diseases” (MEIJI SEIKA PHARMA CO., LTD., priority 2018, dated 2025).

Tests used:
[1] = tested on: IL-5; assay: Cytokine suppression using whole human blood: IL-5 (CytoStim and CD28 antibody stimulus); format: cell-based; details: read-out: IL-5 Inhibitory Activity, Human Whole Blood (Test Example 3)
Protocol: The test compound dissolved in dimethyl sulfoxide was added to a 96-well plate, and RPMI-1640 medium and human peripheral blood containing sodium heparin were added, followed by culture at 37° C. under 5% CO2 for 1 hour. A medium containing only dimethyl sulfoxide instead of the test compound was added to the control well. […]
After collecting the culture supernatant after culturing, the amount of each cytokine was measured by the sandwich ELISA method. […]
The measurement results obtained by measuring the TNFα inhibitory activity and IL-5 inhibitory activity (50% inhibitory concentration) of the test compounds by the above method were evaluated in accordance with the following evaluated basis; A: less than 100 nM, B: 100 nM or more and less than 500 nM, and C: 500 nM or more. In addition, the measurement results obtained by measuring the IL-17A inhibitory activity and IL-4 inhibitory activity (50% inhibitory concentration) of the test compounds were evaluated in accordance with the following evaluated basis; A: less than 500 nM, B: 500 nM or more and less than 5000 nM, and C: 5000 nM or more.

[2] = tested on: IL-5; assay: Cytokine suppression using human peripheral blood mononuclear cells: IL-5; format: cell-based; details: human PBMC, CD3 antibody and CD28 antibody; read-out: IL-5 Inhibitory Activity, Human PBMC (Test Example 4)
Protocol: First, peripheral blood mononuclear cells (PBMC) were separated from whole blood by specific gravity centrifugation. Then, the isolated peripheral blood mononuclear cells were added to RPMI-1640 medium (containing 10% fetal bovine serum, penicillin, streptomycin, L-glutamine, and 2-mercaptoethanol), and cultured in a 96-well plate at 37° C. under 5% CO2 for 0 to 1 hour. The test compound dissolved in dimethyl sulfoxide was added to each well, followed by further culture at 37° C. under 5% CO2 for 1 hour. A medium containing only dimethyl sulfoxide instead of the test compound was added to the control well. […]
The measurement results obtained by measuring the TNFα inhibitory activity and IL-5 inhibitory activity (50% inhibitory concentration) of the test compounds by the above method were evaluated in accordance with the following evaluated basis; A: less than 10 nM, B: 10 nM or more and less than 100 nM, and C: 100 nM or more. In addition, the measurement results obtained by measuring the IL-17A inhibitory activity, IL-23 inhibitory activity, IL-4 inhibitory activity, and IL-13 inhibitory activity (50% inhibitory concentration) of the test compounds were evaluated in accordance with the following evaluated basis; A: less than 500 nM, B: 500 nM or more and less than 5000 nM, and C: 5000 nM or more.

[3] = tested on: bleomycin-induced pulmonary fibrosis, C57BL/6J mice; assay: Mouse bleomycin model; format: in vivo; details: oral once a day for 14 days, day 21 after BLM administration, compared with nintedanib
Protocol: Evaluation was carried out using female C57BL/6J mice (7 weeks of age). Bleomycin (BLM) at a concentration of 2 mg/kg was administered oropharyngeally under anesthesia to induce pulmonary fibrosis. Six days after BLM administration, the group was divided into experimental groups so as to achieve a uniform weight loss rate from the BLM administration day. The test compound dissolved or suspended in 0.5% w/v methylcellulose (0.5% MC) was orally administered (10 μL/g) at a concentration of 10 to 100 mg/kg once a day for 14 days from day 7 after the administration of BLM. On day 21 after BLM administration, blood was collected under anesthesia, and the lungs were fixed with a 10% neutral buffered formalin solution and treated for histological examination. To evaluate the degree of fibrosis, the concentration of serum surfactant protein D (SP-D) was measured by the ELISA method.

[4] = tested on: substance P-induced pruritus behavior, ICR mice; assay: Mouse pruritus model; format: in vivo; details: oral, substance P intradermally 2 hours after administration
Protocol: Evaluation was carried out using male ICR mice (5 to 7 weeks of age). A micro magnet was embedded under the skin of both hind limbs of the mice in advance, and the hair on the back of the mouse neck was shaved. On the day of the test, the test compound was dissolved or suspended in 0.5% w/v methylcellulose (0.5% MC) and orally administered. Two hours after administration of the test compound, 50 μL of 300 nM substance P dissolved in saline was intradermally administered to the back of the mouse neck. The blank was a non-pruritus-induced group orally administered with 0.5% MC instead of the test compound and intradermally administered with saline instead of substance P, and the pruritus induction control was a group orally administered with 0.5% MC instead of the test compound. The pruritus measurement system for small animals, MicroAct II, automatically measured pruritus behavior for 30 minutes immediately after intradermal administration.

CCOc1cc([C@@H](CS(C)(=O)=O)N2C(=O)c3cccc(NC(C)=O)c3C2=O)ccc1OC [apremilast, reference compound]
IC50 [1]: ≥ 5000 nM
IC50 [2]: > 100 nM

CC(C)(O)C(F)(F)Oc1ccc(-c2nccs2)c2oc(N3CC4CC(C3)N4)nc12 [Example 248, 1-((2-(3,6-Diazabicyclo[3.1.1]heptan-3-yl)-7-(thiazol-2-yl)benzo[d]oxazol-4-yl)oxy)-1,1-difluoro-2-methylpropan-2-ol]
IC50 [1]: < 500 nM
IC50 [2]: < 10 nM
pulmonary fibrosis score [3]: equal to or lower than those of nintedanib
serum SP-D concentration [3]: equal to or lower than those of nintedanib
scratching behavior (pruritus behavior for 30 minutes) [4]: suppressed mouse scratching behavior at a lower concentration than apremilast
